Biological target: T1, LpxL (Escherichia coli, UniProt P0ACV0)
T1 sequence (P0ACV0 1-306): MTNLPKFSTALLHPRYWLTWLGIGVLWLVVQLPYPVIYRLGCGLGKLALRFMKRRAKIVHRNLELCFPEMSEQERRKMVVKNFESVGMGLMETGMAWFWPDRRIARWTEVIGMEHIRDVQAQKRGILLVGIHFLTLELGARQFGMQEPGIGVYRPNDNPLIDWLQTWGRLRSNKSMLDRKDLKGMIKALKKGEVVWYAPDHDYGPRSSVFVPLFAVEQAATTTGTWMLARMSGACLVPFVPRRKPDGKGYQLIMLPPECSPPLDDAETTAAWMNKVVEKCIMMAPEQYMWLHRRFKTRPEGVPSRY
Test: […] TLC acyltransferase assay, PhosphorImager
Format: biochemical
Settings: read-out: apparent KM; 90 µM lauroyl-ACP (saturating); 0.1% Triton X-100, 0.1 mg/mL BSA, 5 mM MgCl2, 50 mM NaCl, 50 mM HEPES pH 7.5; 30 °C (standard assay); labelled compound

Km: 15 ± 3 µM
SMILES: CCCCCCCCCCC[C@@H](O)CC(=O)N[C@H]1[C@H](OC[C@H]2O[C@H](OP(=O)(O)O)[C@H](NC(=O)C[C@H](O)CCCCCCCCCCC)[C@@H](OC(=O)C[C@H](O)CCCCCCCCCCC)[C@@H]2O)O[C@H](CO[C@]2(C(=O)O)C[C@@H](O[C@]3(C(=O)O)C[C@@H](O)[C@@H](O)[C@@H]([C@H](O)CO)O3)[C@@H](O)[C@@H]([C@H](O)CO)O2)[C@@H](OP(=O)(O)O)[C@@H]1OC(=O)C[C@H](O)CCCCCCCCCCC [Kdo2-lipid IVA]

Source: paper PMC2664092 (Biochemistry, 2008)
